# Data: BindingDB's records for doi:10.1016/S1074-5521(99)80048-9 (University of California Berkeley, 1999)
# Molecular target: Cyclin-dependent kinase 1 (Homo sapiens, UniProt P06493)
# Test: Inhibition Assay
# From the text: Inhibition assay using CDK1/cyclin B.
# Cyclin-dependent kinase 1, sequence (P06493 whole entry): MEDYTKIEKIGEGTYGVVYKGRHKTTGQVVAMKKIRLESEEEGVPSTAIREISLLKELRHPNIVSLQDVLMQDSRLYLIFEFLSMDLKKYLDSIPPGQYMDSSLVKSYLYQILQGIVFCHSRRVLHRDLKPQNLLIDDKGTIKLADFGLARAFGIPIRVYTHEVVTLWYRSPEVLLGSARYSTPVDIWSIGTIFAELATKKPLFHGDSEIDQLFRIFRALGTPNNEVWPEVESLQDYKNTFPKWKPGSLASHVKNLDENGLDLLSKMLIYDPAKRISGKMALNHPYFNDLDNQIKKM
row,SMILES,IC50
1,"CC(C)N1CNc2c(N(CCN(C)C)Cc3ccccc3)nc(N3CCCCC3CCO)nc21 (configuration not stated) [2-(2-hydroxyethylpiperidyl)-9-isopropylpurine core C6-substituent, 227]",> 10000 nM
2,"COc1ccc(CNc2nc(NCCCO)nc3c2NCN3C(C)C)cc1 [6-(4-methoxybenzylamino) core C2-substituent, 209]",1200 nM
3,"COc1ccccc1Nc1nc(NCCO)nc2c1NCN2C(C)C [2-(2-hydroxyethylamino)-9-isopropylpurine core C6-substituents, 46]",9000 nM
4,"CC(C)[C@H](CO)Nc1nc(Nc2ccc(Br)cc2)c2c(n1)N(C(C)C)CN2 [2-(1 R-isopropyl-2-hydroxyethylamino)-9-isopropylpurine core C6-substituent, 73]",40 nM
5,"CCN(CCO)c1nc(NCc2ccc(OC)cc2)c2c(n1)N(C(C)C)CN2 [6-(4-methoxybenzylamino) core C2-substituent, 13]",1200 nM
6,"CC(C)[C@H](CO)Nc1nc(NCc2cccc(I)c2)c2c(n1)N(C(C)C)CN2 [2-(1 R-isopropyl-2-hydroxyethylamino)-9-isopropylpurine core C6-substituent, 112]",170 nM
7,"COc1ccc(CNc2nc(N3CCN(CCO)CC3)nc3c2NCN3C(C)C)cc1 [6-(4-methoxybenzylamino) core C2-substituent, 11]",7000 nM
8,"CC(O)CN(CC(C)O)c1nc(Nc2cccc(Cl)c2)c2c(n1)N(C(C)C)CN2 (configuration not stated) [6-(3-chloroanilino)-9-isopropylpurine core C2-substituent, 305]",350 nM
9,"COc1ccc(CNc2nc(N3CCCCC3CCO)nc3c2NCN3C(C)C)cc1 (configuration not stated) [6-(4-methoxybenzylamino) core C2-substituent, 10]",210 nM
10,"CCC(C)[C@@H](CO)Nc1nc(Nc2cccc(Cl)c2)c2c(n1)N(C(C)C)CN2 (some centres not stated) [6-(3-chloroanilino)-9-isopropylpurine core C2-substituent, 62]",500 nM
11,"COc1ccc(CNc2nc(NC3(CO)CCCC3)nc3c2NCN3C(C)C)cc1 [6-(4-methoxybenzylamino) core C2-substituent, 314]",450 nM
12,"COc1ccc(CNc2nc(NCC(O)CN)nc3c2NCN3C(C)C)cc1 (configuration not stated) [6-(4-methoxybenzylamino) core C2-substituent, 41]",1600 nM
13,"CC(C)N1CNc2c(NCc3cccc(C(F)(F)F)c3)nc(N3CCCCC3CCO)nc21 (configuration not stated) [2-(2-hydroxyethylpiperidyl)-9-isopropylpurine core C6-substituent, 222]",3000 nM
14,"COc1ccc(CNc2nc(N(C)CC(O)c3ccccc3)nc3c2NCN3C(C)C)cc1 (configuration not stated) [6-(4-methoxybenzylamino) core C2-substituent, 37]",1000 nM
15,"COc1ccc(CNc2nc(NCCO)nc3c2NCN3C(C)C)cc1 [6-(4-methoxybenzylamino) core C2-substituent, 118]",700 nM
16,"CCCCNc1nc(N2CCCCC2CCO)nc2c1NCN2C(C)C (configuration not stated) [2-(2-hydroxyethylpiperidyl)-9-isopropylpurine core C6-substituent, 219]",1300 nM
17,"CC(C)[C@H](CO)Nc1nc(Nc2ccc(O)c(C(=O)O)c2)c2c(n1)N(C(C)C)CN2 [2-(1 R-isopropyl-2-hydroxyethylamino)-9-isopropylpurine core C6-substituent, 94]",100 nM
18,"CC(C)N1CNc2c(Nc3cccc(Cl)c3)nc(N[C@H](CO)C(C)(C)C)nc21 [6-(3-chloroanilino)-9-isopropylpurine core C2-substituent, 61]",2300 nM
19,"CC(C)N1CNc2c(Nc3ccc4ccccc4c3)nc(NCCO)nc21 [2-(2-hydroxyethylamino)-9-isopropylpurine core C6-substituents, 47]",430 nM
20,"CC(C)N1CNc2c(Nc3cccc(Cl)c3)nc(N(CCO)Cc3ccccc3)nc21 [6-(3-chloroanilino)-9-isopropylpurine core C2-substituent, 302]",5000 nM

# More lines, now with the values ahead:
row,IC50,SMILES
1,10800 nM,"COc1ccc(CNc2nc(N3CCN(C)CC3)nc3c2NCN3C(C)C)cc1 [6-(4-methoxybenzylamino) core C2-substituent, 12]"
2,240 nM,"COc1ccc(CNc2nc(N(CC(C)O)CC(C)O)nc3c2NCN3C(C)C)cc1 (configuration not stated) [6-(4-methoxybenzylamino) core C2-substituent, 16]"
3,30 nM,"CC(C)[C@H](CO)Nc1nc(Nc2ccc(Cl)c(C(=O)O)c2)c2c(n1)N(C(C)C)CN2 [2-(1 R-isopropyl-2-hydroxyethylamino)-9-isopropylpurine core C6-substituent, 96]"
4,5000 nM,"CC(C)N1CNc2c(Nc3cccc(Cl)c3)nc(N[C@H]3Cc4ccccc4[C@H]3O)nc21 [6-(3-chloroanilino)-9-isopropylpurine core C2-substituent, 69]"
5,> 10000 nM,"Cc1ccc(CN(c2nc(Nc3cccc(Cl)c3)c3c(n2)N(C(C)C)CN3)[C@@H](O)C(C)C)cc1 [2-((1 R-isopropyl)-2-hydroxyethylamino)-6-(3-chloroanilino)-9-isopropylpurine core C2-substituent, 317]"
6,80 nM,"CC(C)[C@H](CO)Nc1nc(Nc2ccc(Cl)cc2)c2c(n1)N(C(C)C)CN2 [2-(1 R-isopropyl-2-hydroxyethylamino)-9-isopropylpurine core C6-substituent, 356]"
7,6500 nM,"COc1ccc(CNc2nc(N3CCC(O)CC3)nc3c2NCN3C(C)C)cc1 [6-(4-methoxybenzylamino) core C2-substituent, 27]"
8,1200 nM,"CC(C)N1CNc2c(NCc3ccc4ccccc4c3)nc(N3CCCCC3CCO)nc21 (configuration not stated) [2-(2-hydroxyethylpiperidyl)-9-isopropylpurine core C6-substituent, 226]"
9,2800 nM,"COc1ccc(CNc2nc(N(CCO)Cc3ccccc3)nc3c2NCN3C(C)C)cc1 [6-(4-methoxybenzylamino) core C2-substituent, 49]"
10,1300 nM,"COc1ccc(CNc2nc(NCC(O)CO)nc3c2NCN3C(C)C)cc1 (configuration not stated) [6-(4-methoxybenzylamino) core C2-substituent, 15]"
11,4000 nM,"COc1ccc(CNc2nc(N3CCCCCC3)nc3c2NCN3C(C)C)cc1 [6-(4-methoxybenzylamino) core C2-substituent, 38]"
12,790 nM,"CC(C)N1CNc2c(Nc3ccc(Cl)cc3)nc(N3CCCCC3CCO)nc21 (configuration not stated) [2-(2-hydroxyethylpiperidyl)-9-isopropylpurine core C6-substituent, 359]"
13,2800 nM,"COc1ccc(CNc2nc(NCC(O)c3ccccc3)nc3c2NCN3C(C)C)cc1 (configuration not stated) [6-(4-methoxybenzylamino) core C2-substituent, 50]"
14,5000 nM,"COc1ccc(CNc2nc(N(CCN(C)C)Cc3ccccc3)nc3c2NCN3C(C)C)cc1 [6-(4-methoxybenzylamino) core C2-substituent, 40]"
15,220 nM,"CC(C)N1CNc2c(Nc3cccc(Cl)c3)nc(NCCO)nc21 [2-(2-hydroxyethylamino)-9-isopropylpurine core C6-substituents, 52]"
16,100 nM,"COc1ccc(CNc2nc(N[C@@H](CO)CC(C)C)nc3c2NCN3C(C)C)cc1 [6-(4-methoxybenzylamino) core C2-substituent, 36]"
17,1500 nM,"CC(C)N1CNc2c(NCCNc3ccccc3)nc(N3CCCCC3CCO)nc21 (configuration not stated) [2-(2-hydroxyethylpiperidyl)-9-isopropylpurine core C6-substituent, 224]"
18,240 nM,"CC(C)[C@H](CO)Nc1nc(Nc2ccccc2)c2c(n1)N(C(C)C)CN2 [2-(1 R-isopropyl-2-hydroxyethylamino)-9-isopropylpurine core C6-substituent, 78]"
19,300 nM,"CC[C@H](CO)Nc1nc(Nc2cccc(Cl)c2)c2c(n1)N(C(C)C)CN2 [6-(3-chloroanilino)-9-isopropylpurine core C2-substituent, 307]"
20,250 nM,"COc1ccc(CNc2nc(N(CCO)CCCO)nc3c2NCN3C(C)C)cc1 [6-(4-methoxybenzylamino) core C2-substituent, 211]"
21,500 nM,"CC(C)N1CNc2c(Nc3cccc(Cl)c3)nc(N[C@H](CO)Cc3ccccc3)nc21 [6-(3-chloroanilino)-9-isopropylpurine core C2-substituent, 70]"
22,160 nM,"CC(C)N1CNc2c(NCc3ccccc3)nc(N3CCCCC3CCO)nc21 (configuration not stated) [2-(2-hydroxyethylpiperidyl)-9-isopropylpurine core C6-substituent, 212]"
23,530 nM,"CC(C)C[C@H](CO)Nc1nc(Nc2cccc(Cl)c2)c2c(n1)N(C(C)C)CN2 [6-(3-chloroanilino)-9-isopropylpurine core C2-substituent, 308]"
24,800 nM,"CC(C)N1CNc2c(Nc3cccc(Cl)c3)nc(N[C@H](CO)c3ccccc3)nc21 [6-(3-chloroanilino)-9-isopropylpurine core C2-substituent, 59]"
25,9000 nM,CC(C)N1CNc2c(NCCC(c3ccccc3)c3ccccc3)nc(N3CCCCC3CCO)nc21 (configuration not stated)
26,6000 nM,"CC(C)N1CNc2c(NCc3cccc(I)c3)nc(N3CCCCC3CCO)nc21 (configuration not stated) [2-(2-hydroxyethylpiperidyl)-9-isopropylpurine core C6-substituent, 113]"
27,130 nM,"CC(C)N1CNc2c(Nc3ccccc3)nc(N3CCCCC3CCO)nc21 (configuration not stated) [2-(2-hydroxyethylpiperidyl)-9-isopropylpurine core C6-substituent, 220]"
